Laboratory results from US10172835B2, “Anticancer agent composition” (J-Pharma Co., Ltd., priority 2014, dated 2019).

Columns and labels:
tPTEN−/− cells = test: Global protein synthesis (data not shown); format: cell-based, murine
mTORC1 / Akt activation = test: Western blot of S6RP, 4EBP1 and Akt phosphorylation, KO99L cells; format: cell-based, murine; conditions: 2.0-24 h; COMPOUND-JP 10.0 μM; MK-2206 5.0 μM; KU0063794 5.0 μM; rapamycin 10.0 nM; L-Asp, Erw 2.5 units/ml; velcade at 24 h
LC3 = test: Western blot of LC3 processing (autophagy), KO99L cells; format: cell-based, murine; conditions: 10.0 μM
Procedure: (§1) Cell extracts were prepared using a cell lysis buffer (50 mM HEPES, pH 7.4, 150 mM NaCl, 20 mM EDTA, 100 mM NaF, 10 mM Na3VO4, 0.5% nonyl phenoxypolyethoxylethanol (NP40) supplemented with a cocktail of protease inhibitors. After SDS-PAGE separation and transfer to nitrocellulose immunoblotting was performed using the following antibodies against: Akt (Cell Signaling Technologies, #9272), CHOP (#2895), cleaved caspase 3 (#9664), c-Myc (#9402), eIF2a (#9721), 4EBP1 (#9644), LC3A/B (#12741), PARP (#9542), pJnk (T183/Y185) (#9251), pSer235-236-S6RP (#4856), pSer473-Akt (#9271), pSer65-4EBP1 (#9451) and S6RP (#2217); Bax (Sigma-Aldrich, B8429); PUMA (Abcam, ab54288); Bak (Millipore, 06536); ATF4 (Santa Cruz Biotechnologies, sc200), GADD34 (sc8327), Hsp60 (sc-1722), Hsp90 (sc-13119) and XBP1 (sc-7160); ATF6 (Imgenex, IMG-273).

[1] = system: human Peripheral Blood Lymphocytes; test: Proliferative response of human PBL; format: cell-based; conditions: 1.0-50.0 μM
[2] = system: Unfolded Protein Response components; test: Western blot of ISR/UPR components, KO99L cells; format: cell-based, murine; conditions: 10.0 μM
Procedure: as §1

Bcl2 family members = test: Western blot of Bcl2 family members, KO99L cells; format: cell-based, murine; conditions: 10.0 μM, starting at 6.0 h
Procedure: as §1

KO99-RJ cells [3] = test: Cell death (PI staining) of KO99-RJ cells; format: cell-based, murine; conditions: 48 h
caspase 3 [4] = test: Western blot of caspase 3 activation and PARP cleavage, KO99L cells; format: cell-based, murine; conditions: 10.0 μM
Procedure: as §1

caspase 3 [5] = test: Western blot of caspase 3 activation and PARP cleavage in primary tPTEN−/− tumor cells (KO#732); format: cell-based, murine; conditions: primary KO#732 cells; COMPOUND-JP 5.0, 10.0 μM; PI-103 10.0 μM; rapamycin 10.0 nM; 2.0-18.0 h
Procedure: as §1

[6] = system: freshly isolated tPTEN−/− tumor cells; test: WST-1 cell viability of freshly isolated primary tPTEN−/− tumor cells; format: cell-based, murine; conditions: concentration dependent manner
Procedure: (§2) Two different assays were employed: i) In a 96-well plate format, cells (4.0±0.1×10^4 per well; 100 μL) were incubated with effectors (48 h, 37° C.; n=4 per experiment) and then WST-1 reagent (10 μL; Roche Diagnostics) added to each well of 96-well plates, incubated, and the formazan production was measured at 490 nm; and ii) cells (2.0±0.1×10^4 per well; 100 μL) were incubated with effectors (48 h, 37° C.; n=4 per experiment) and then bromodeoxyuridine reagent (10 μL/well; Roche Diagnostics) was added to each well and incubated (8 h, 37° C.). The cells were then fixed, denatured and incubated with anti-BrdU-conjugated with peroxidase (POD) antibody (100 μL/well). Colorimetric substrate (TMB: tetramethyl-benzidine; 100 μL/well) was added and BrdU incorporation quantified via optical density measurement (450 nm) which corresponds to DNA synthesis and proliferating cells.

mTOR (phospho-S6RP) = test: Phospho-Flow staining of phospho-S6RP in primary T-ALL samples; format: cell-based, human; conditions: two primary T-ALL samples, 10 μM
Procedure: Cells (1.0±0.1×10^6 per well; 1 mL) were incubated with various effectors (24 h, 37° C.) and then permeabilized with Cytofix/Cytoperm buffer (100 μL, 30 min, 4° C.) and then washed with PermWash (BD Biosciences) and stained with phospho-Ser235/236-S6RP antibody (30 min, 4° C.). After an additional PermWash, cells were then stained with a secondary anti-rabbit-alexaF 488 (20 μg/mL; Life Technologies) for (30 min, 4° C.). Cells were then washed in PermWash and re-suspended in staining buffer (PBS+0.1% bovine serum albumin+1.0% paraformaldehyde) and analyzed by flow cytometry on a MacsQuant Analyser (Miltenyi Biotech).

KO99L cells = test: Mitochondrial trans-membrane potential (TMRE staining), KO99L cells; format: cell-based, murine
Procedure: Mitochondrial trans-membrane potential (ψm) changes as a function of apoptotic events were measured using Tetra Methyl Rhodamine Ethyl Ester Perchlorate assay (TMRE; Molecular Probes). […] Thereafter, the cells were washed twice with PBS and then stained with DAPI (Sigma-Aldrich, 1.0 μg/mL) and examined via a MACSQuant Analyser (Miltenyi Biotech) and the data evaluated via FlowJo software.

Jurkat T-ALL line = test: Cell proliferation of Jurkat human T-ALL cells; format: cell-based
Procedure: as §2

primary tPTEN−/− cells = test: Cell death of primary tPTEN−/− lines, PI staining and Facs; format: cell-based, murine; conditions: 2.5-20.0 μM, 48 h, five primary tumors
[7] = system: KO99L cells (tPTEN−/− tumor cell line); test: WST-1 cell viability assay on KO99L cells; format: cell-based, murine
Procedure: as §2

[8] = system: normal resting or activated human PBL cells; test: Cell death analysis of resting or activated human PBL; format: cell-based
[9] = system: 44As3-11 cell derived from human scirrhous stomach cancer; test: MTT proliferation of 44As3-11 cells; format: cell-based; conditions: 44As3-11, culture 5 days
Procedure: The culture in the absence of COM-JP and in the presence of COM-JP with different concentrations in the culture medium of each cancer cell was continued for 5 days. Proliferation activity of the cell on each elapsed day was measured by a MTT method.

KO99-RJ cells [10] = test: WST-1 cell viability of COMPOUND-JP-resistant KO99-RJ cells; format: cell-based, murine; conditions: Mus musculus, 48 h, read-out: decrease in cell viability
Procedure: as §2

## Nc1cc(COc2c(Cl)cc(C[C@H](N)C(=O)O)cc2Cl)c2oc(-c3ccccc3)nc2c1 [COMPOUND-JP, O-(5-amino-2-phenylbenzoxazole-7-yl)methyl-3,5-dichloro-L-tyrosine]
tPTEN−/− cells
  interference with global protein synthesis: did not observe any interference
mTORC1 / Akt activation
  4EBP1 phosphorylation: no effect
  Akt phosphorylation (serine 473) / activation: interfered with Akt activation
  S6RP phosphorylation (mTORC1 activation): affect mTORC1 activation as early as 2.0 h
LC3
  LC3-II accumulation: stimulated LC3-II accumulation
[1]
  PBL cell proliferation: did not significantly alter
[2]
  GADD34: expression
  full length XBP1: gradually disappeared
[2]; 2.0 h
  p38 stress pathway: strongly activated
[2]; 6.0 h
  ATF4: induction
[2]; 18.0 h
  ATF6: induction
[2]; 24 h
  eIF2 phosphorylation: De-phosphorylation
Bcl2 family members
  protein levels of four pro-apoptotic members: Bak, Bax, PUMA and Bim: increased protein levels
KO99-RJ cells [3]
  cell death: far less efficient
Caspase 3 [4]; 48 hr
  caspase 3 cleavage: essentially all cellular caspase 3 was processed
Caspase 3 [4]; four-to-six hour post addition
  caspase 3 cleavage: caspase 3 cleavage could be observed
Caspase 3 [4]; 24 h
  PARP cleavage: fully cleaved
Caspase 3 [5]
  caspase 3 processing and PARP cleavage (apoptosis): induced caspase 3 processing and PARP cleavage
[6]
  cell viability in freshly isolated tPTEN−/− tumor cells: influenced cell viability
mTOR (phospho-S6RP)
  phospho-S6RP by phospho-Flow cytometry: mTOR inhibitory effect
KO99L cells; 5.0 and 10.0 μM
  Mitonchondrial Outer Membrane Permeabilization (MOMP): cause MOMP
KO99L cells; highest concentration tested (20.0 μM), 48 hr
  mitochondrial depolarization: 70%
Jurkat T-ALL line
  proliferation: alter
Primary tPTEN−/− cells
  cell death in primary tPTEN−/− cells: dose dependent
[7]; KO99L cells, 2.5-10.0 μM, 48 h
  cell viability: dose-dependent decrease
[7]; KO99L cells, 2.5-10.0 μM, NEAA no rescue
  reversal of the viability decrease by Essential Amino Acids (EAA) in the medium: partially reversed
[7]; Mus musculus, KO99-S (parental KO99L), 40 μM, 48 h, read-out: decrease in cell viability
  cytotoxicity at 40 µM: 95 to 100%
[7]; Mus musculus, KO99L tPTEN−/− cells, 48 h, read-out: IC50, cell viability (drug concentration to kill half of the cells)
  IC50: 2400 nM
[8]
  cell death: did not induce cell death
[9]
  proliferation activity: dose-dependent decrease
KO99-RJ cells [10]
  cytotoxicity at 40 µM: ~40%
